{
  "source": "paper PMC12120022",
  "about": "“Discovery and chemical optimisation of a potent, Bi-cyclic antimicrobial inhibitor of Escherichia coli PBP3” (Communications Biology, 2025)",
  "biological_target": "T1, EcPBP3 (Escherichia coli, UniProt P0AD68)",
  "T1 construct": "For assays, selections and SPR a construct with residues 60–588 which has the N-terminal domain, but not the transmembrane helix, was used; made in house",
  "T1 sequence (P0AD68 60-588)": "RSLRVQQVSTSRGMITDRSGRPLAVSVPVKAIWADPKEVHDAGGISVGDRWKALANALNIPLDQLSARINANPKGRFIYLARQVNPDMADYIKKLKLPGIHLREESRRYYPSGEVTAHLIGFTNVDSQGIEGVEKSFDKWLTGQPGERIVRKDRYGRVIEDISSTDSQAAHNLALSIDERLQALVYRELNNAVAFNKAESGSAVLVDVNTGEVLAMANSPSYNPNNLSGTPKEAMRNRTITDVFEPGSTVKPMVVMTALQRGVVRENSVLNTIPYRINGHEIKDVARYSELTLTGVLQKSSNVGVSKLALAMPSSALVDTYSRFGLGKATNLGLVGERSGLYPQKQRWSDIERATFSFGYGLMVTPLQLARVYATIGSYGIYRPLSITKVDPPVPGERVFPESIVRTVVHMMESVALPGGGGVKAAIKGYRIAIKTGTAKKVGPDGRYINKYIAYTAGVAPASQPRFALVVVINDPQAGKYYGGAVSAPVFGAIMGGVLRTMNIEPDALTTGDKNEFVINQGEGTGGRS",
  "assay": "Fluorescence polarisation competition assay with fluorescent Bicycle tracer (tracer 1 / BCY12820)",
  "type": "binding",
  "conditions": "protein 9.4 nM sets sensitivity limit, top concentration 5 µM, read-out: Ki (nM) by fluorescence polarisation with tracer 1 (BCY12820 as tracer), Geometric mean (Lower 95% CI; Upper 95% CI, n=number of values)",
  "experimental": "Competition fluorescence polarisation assays were run by observing the fluorescence polarisation of a fluorescent “tracer” Bicycle molecule which competes against an unlabelled peptide for binding to the EcPBP3 target. 10 µL of protein (9.4 nM) was mixed with either 5 µL of peptide or 5 µL of buffer and then the assay was initiated by the addition of 10 µL of tracer (1 nM) (final volume 25 µL), in a black 384 low bind, low volume plate (Corning). The buffer was 10 mM HEPES (Sigma), 2% (v/v) glycerol (Sigma), 300 mM NaCl (Sigma), adjusted to pH 8. The plate was incubated for 1 h at 25 °C and then read in a PHERAstar FS (BMG) using with an “FP 485 520 520” optic module (excitation 485 nm, emission 520 nm). The gain was determined immediately prior to the read on a tracer-only well.\nDotmatics (Dotmatics) workflows performing the above calculations were used to process the data. Values quoted are the geometric means of at least 2 repeats.",
  "note": "Where a SMILES comes first, the peptide text is derived from it.",
  "data": [
    {"smiles": "CC(C)[C@@H]1NC(=O)[C@H](Cc2c[nH]c3ccccc23)NC(=O)[C@@H]2CCCN2C(=O)[C@@H]2CSCCC(=O)N3CN(CN(C3)C(=O)CCSC[C@H](NC(=O)[C@H](C)N)C(=O)N[C@@H](CO)C(=O)N[C@@H](Cc3c[nH]cn3)C(=O)N3CCC[C@H]3C(=O)N[C@@H](CCCCNC(=N)N)C(=O)N2)C(=O)CCSC[C@@H](C(=O)N[C@@H](C)C(N)=O)NC(=O)CNC(=O)[C@H](CCC(=O)O)NC1=O", "note": "[Peptide 32] (HELM PEPTIDE1{A.C.S.H.P.[N=C(N)NCCCC[C@H](N[*:1])C(=O)[*:2]].C.P.W.V.E.G.C.A.[am]}|CHEM1{[O=C(CC[*:1])N1CN(C(=O)CC[*:2])CN(C(=O)CC[*:3])C1]}$PEPTIDE1,CHEM1,2:R3-1:R1|PEPTIDE1,CHEM1,7:R3-1:R2|PEPTIDE1,CHEM1,13:R3-1:R3$$$V2.0)", "values": [
      {"measurement": "Ki", "value": 115, "unit": "nM"}
    ]},
    {"smiles": "CC(C)[C@@H]1NC(=O)[C@H](Cc2c[nH]c3ccccc23)NC(=O)[C@@H]2CCCN2C(=O)[C@@H]2CSCCC(=O)N3CN(CN(C3)C(=O)CCSC[C@H](NC(=O)[C@H](C)N)C(=O)N[C@@H](CO)C(=O)N[C@@H](Cc3ccccc3)C(=O)N3CCC[C@H]3C(=O)N[C@@H](CCCCNC(=N)N)C(=O)N2)C(=O)CCSC[C@@H](C(=O)N[C@@H](C)C(N)=O)NC(=O)CNC(=O)[C@@H]2CCCN2C1=O", "note": "[Peptide 47] (HELM PEPTIDE1{A.C.S.F.P.[N=C(N)NCCCC[C@H](N[*:1])C(=O)[*:2]].C.P.W.V.P.G.C.A.[am]}|CHEM1{[O=C(CC[*:1])N1CN(C(=O)CC[*:2])CN(C(=O)CC[*:3])C1]}$PEPTIDE1,CHEM1,2:R3-1:R1|PEPTIDE1,CHEM1,7:R3-1:R2|PEPTIDE1,CHEM1,13:R3-1:R3$$$V2.0)", "values": [
      {"measurement": "Ki", "value": 18, "unit": "nM"}
    ]},
    {"smiles": "CC(C)[C@@H]1NC(=O)[C@H](Cc2c[nH]c3ccccc23)NC(=O)CNC(=O)[C@@H]2CSCCC(=O)N3CN(CN(C3)C(=O)CCSC[C@H](NC(=O)[C@H](C)N)C(=O)N[C@@H](CO)C(=O)N[C@@H](Cc3ccccc3)C(=O)N3CCC[C@H]3C(=O)N[C@@H](CCCCNC(=N)N)C(=O)N2)C(=O)CCSC[C@@H](C(=O)N[C@@H](C)C(N)=O)NC(=O)CNC(=O)[C@H](CCC(=O)O)NC1=O", "note": "[Peptide 41] (HELM PEPTIDE1{A.C.S.F.P.[N=C(N)NCCCC[C@H](N[*:1])C(=O)[*:2]].C.G.W.V.E.G.C.A.[am]}|CHEM1{[O=C(CC[*:1])N1CN(C(=O)CC[*:2])CN(C(=O)CC[*:3])C1]}$PEPTIDE1,CHEM1,2:R3-1:R1|PEPTIDE1,CHEM1,7:R3-1:R2|PEPTIDE1,CHEM1,13:R3-1:R3$$$V2.0)", "values": [
      {"measurement": "Ki", "value": "> 5000", "unit": "nM"}
    ]},
    {"smiles": "CC(C)[C@@H]1NC(=O)[C@H](Cc2c[nH]c3ccccc23)NC(=O)[C@@H]2CCCN2C(=O)[C@@H]2CSCCC(=O)N3CN(CN(C3)C(=O)CCSC[C@H](NC(=O)[C@H](C)N)C(=O)NCC(=O)N[C@@H](Cc3ccccc3)C(=O)N3CCC[C@H]3C(=O)N[C@@H](CCCCNC(=N)N)C(=O)N2)C(=O)CCSC[C@@H](C(=O)N[C@@H](C)C(N)=O)NC(=O)CNC(=O)[C@H](CCC(=O)O)NC1=O", "note": "[Peptide 26] (HELM PEPTIDE1{A.C.G.F.P.[N=C(N)NCCCC[C@H](N[*:1])C(=O)[*:2]].C.P.W.V.E.G.C.A.[am]}|CHEM1{[O=C(CC[*:1])N1CN(C(=O)CC[*:2])CN(C(=O)CC[*:3])C1]}$PEPTIDE1,CHEM1,2:R3-1:R1|PEPTIDE1,CHEM1,7:R3-1:R2|PEPTIDE1,CHEM1,13:R3-1:R3$$$V2.0)", "values": [
      {"measurement": "Ki", "value": 17.1, "unit": "nM"}
    ]},
    {"smiles": "CC(C)[C@@H]1NC(=O)[C@H](Cc2c[nH]c3ccccc23)NC(=O)[C@@H]2CCCN2C(=O)[C@@H]2CSCCC(=O)N3CN(CN(C3)C(=O)CCSC[C@H](NC(=O)[C@H](C)N)C(=O)N[C@@H](CO)C(=O)N[C@@H](Cc3ccccc3)C(=O)N[C@@H](CO)C(=O)N[C@@H](CCCCNC(=N)N)C(=O)N2)C(=O)CCSC[C@@H](C(=O)N[C@@H](C)C(N)=O)NC(=O)CNC(=O)[C@H](CCC(=O)O)NC1=O", "note": "[Peptide 35] (HELM PEPTIDE1{A.C.S.F.S.[N=C(N)NCCCC[C@H](N[*:1])C(=O)[*:2]].C.P.W.V.E.G.C.A.[am]}|CHEM1{[O=C(CC[*:1])N1CN(C(=O)CC[*:2])CN(C(=O)CC[*:3])C1]}$PEPTIDE1,CHEM1,2:R3-1:R1|PEPTIDE1,CHEM1,7:R3-1:R2|PEPTIDE1,CHEM1,13:R3-1:R3$$$V2.0)", "values": [
      {"measurement": "Ki", "value": 53.4, "unit": "nM"}
    ]},
    {"smiles": "CC[C@H](C)[C@@H]1NC(=O)[C@H](Cc2c[nH]c3ccccc23)NC(=O)[C@@H]2CCCN2C(=O)[C@@H]2CSCCC(=O)N3CN(CN(C3)C(=O)CCSC[C@H](NC(=O)[C@H](C)N)C(=O)N[C@@H](CO)C(=O)N[C@@H](Cc3ccccc3)C(=O)N3CCC[C@H]3C(=O)N[C@@H](CCCCNC(=N)N)C(=O)N2)C(=O)CCSC[C@@H](C(=O)N[C@@H](C)C(N)=O)NC(=O)CNC(=O)[C@H](CCC(=O)O)NC1=O", "note": "[Peptide 45] (HELM PEPTIDE1{A.C.S.F.P.[N=C(N)NCCCC[C@H](N[*:1])C(=O)[*:2]].C.P.W.I.E.G.C.A.[am]}|CHEM1{[O=C(CC[*:1])N1CN(C(=O)CC[*:2])CN(C(=O)CC[*:3])C1]}$PEPTIDE1,CHEM1,2:R3-1:R1|PEPTIDE1,CHEM1,7:R3-1:R2|PEPTIDE1,CHEM1,13:R3-1:R3$$$V2.0)", "values": [
      {"measurement": "Ki", "value": "< 9", "unit": "nM"}
    ]},
    {"smiles": "CC(C)[C@@H]1NC(=O)[C@H](Cc2c[nH]cn2)NC(=O)[C@@H]2CCCN2C(=O)[C@@H]2CSCCC(=O)N3CN(CN(C3)C(=O)CCSC[C@H](NC(=O)[C@H](C)N)C(=O)N[C@@H](CO)C(=O)N[C@@H](Cc3ccccc3)C(=O)N3CCC[C@H]3C(=O)N[C@@H](CCCCNC(=N)N)C(=O)N2)C(=O)CCSC[C@@H](C(=O)N[C@@H](C)C(N)=O)NC(=O)CNC(=O)[C@H](CCC(=O)O)NC1=O", "note": "[Peptide 44] (HELM PEPTIDE1{A.C.S.F.P.[N=C(N)NCCCC[C@H](N[*:1])C(=O)[*:2]].C.P.H.V.E.G.C.A.[am]}|CHEM1{[O=C(CC[*:1])N1CN(C(=O)CC[*:2])CN(C(=O)CC[*:3])C1]}$PEPTIDE1,CHEM1,2:R3-1:R1|PEPTIDE1,CHEM1,7:R3-1:R2|PEPTIDE1,CHEM1,13:R3-1:R3$$$V2.0)", "values": [
      {"measurement": "Ki", "value": "> 5000", "unit": "nM"}
    ]},
    {"smiles": "CC(C)[C@@H]1NC(=O)[C@H](Cc2ccc(O)cc2)NC(=O)[C@@H]2CCCN2C(=O)[C@@H]2CSCCC(=O)N3CN(CN(C3)C(=O)CCSC[C@H](NC(=O)[C@H](C)N)C(=O)N[C@@H](CO)C(=O)N[C@@H](Cc3ccccc3)C(=O)N3CCC[C@H]3C(=O)N[C@@H](CCCCNC(=N)N)C(=O)N2)C(=O)CCSC[C@@H](C(=O)N[C@@H](C)C(N)=O)NC(=O)CNC(=O)[C@H](CCC(=O)O)NC1=O", "note": "[Peptide 42] (HELM PEPTIDE1{A.C.S.F.P.[N=C(N)NCCCC[C@H](N[*:1])C(=O)[*:2]].C.P.Y.V.E.G.C.A.[am]}|CHEM1{[O=C(CC[*:1])N1CN(C(=O)CC[*:2])CN(C(=O)CC[*:3])C1]}$PEPTIDE1,CHEM1,2:R3-1:R1|PEPTIDE1,CHEM1,7:R3-1:R2|PEPTIDE1,CHEM1,13:R3-1:R3$$$V2.0)", "values": [
      {"measurement": "Ki", "value": 209, "unit": "nM"}
    ]},
    {"smiles": "CC(C)[C@@H]1NC(=O)[C@H](Cc2c[nH]c3ccccc23)NC(=O)[C@@H]2CCCN2C(=O)[C@@H]2CSCCC(=O)N3CN(CN(C3)C(=O)CCSC[C@H](NC(=O)[C@H](C)N)C(=O)N[C@@H](CC(N)=O)C(=O)N[C@@H](Cc3ccccc3)C(=O)N3CCC[C@H]3C(=O)N[C@@H](CCCCNC(=N)N)C(=O)N2)C(=O)CCSC[C@@H](C(=O)N[C@@H](C)C(N)=O)NC(=O)CNC(=O)[C@H](CCC(=O)O)NC1=O", "note": "[Peptide 29] (HELM PEPTIDE1{A.C.N.F.P.[N=C(N)NCCCC[C@H](N[*:1])C(=O)[*:2]].C.P.W.V.E.G.C.A.[am]}|CHEM1{[O=C(CC[*:1])N1CN(C(=O)CC[*:2])CN(C(=O)CC[*:3])C1]}$PEPTIDE1,CHEM1,2:R3-1:R1|PEPTIDE1,CHEM1,7:R3-1:R2|PEPTIDE1,CHEM1,13:R3-1:R3$$$V2.0)", "values": [
      {"measurement": "Ki", "value": "< 9", "unit": "nM"}
    ]},
    {"smiles": "CC(C)[C@@H]1NC(=O)[C@H](Cc2c[nH]c3ccccc23)NC(=O)[C@@H]2CCCN2C(=O)[C@@H]2CSCCC(=O)N3CN(CN(C3)C(=O)CCSC[C@@H](C(=O)N[C@@H](C)C(N)=O)NC(=O)[C@H](CC(N)=O)NC(=O)[C@H](CCC(=O)O)NC1=O)C(=O)CCSC[C@H](NC(=O)[C@H](C)N)C(=O)N[C@@H](CO)C(=O)N[C@@H](Cc1ccccc1)C(=O)N1CCC[C@H]1C(=O)N[C@@H](CCCCNC(=N)N)C(=O)N2", "note": "[Peptide 52] (HELM PEPTIDE1{A.C.S.F.P.[N=C(N)NCCCC[C@H](N[*:1])C(=O)[*:2]].C.P.W.V.E.N.C.A.[am]}|CHEM1{[O=C(CC[*:1])N1CN(C(=O)CC[*:2])CN(C(=O)CC[*:3])C1]}$PEPTIDE1,CHEM1,2:R3-1:R1|PEPTIDE1,CHEM1,7:R3-1:R2|PEPTIDE1,CHEM1,13:R3-1:R3$$$V2.0)", "values": [
      {"measurement": "Ki", "value": "< 9", "unit": "nM"}
    ]}
  ]
}
